Reference: ChEMBL document CHEMBL1147189, “QSAR analysis for heterocyclic antifungals” (2007)
≈ marks a conversion by molar mass, not a printed value.

System: Candida albicans
Test: Antifungal activity against Candida albicans by serial dilution method
Format: functional
Settings: read-out: -Log MIC (converted)

MIC [µM]	Compound
43.7 (≈ 12.6 µg/mL)	Brc1ccc(Cc2nc3ccccc3o2)cc1
112 (≈ 25 µg/mL)	CNc1ccc(-c2nc3ccccc3o2)cc1
52.8 (≈ 12.5 µg/mL)	Cc1ccc2[nH]c(CCc3ccccc3)nc2c1
45.7 (≈ 12.5 µg/mL)	COc1ccc(Cc2nc3cc(Cl)ccc3o2)cc1
52.1 (≈ 12.5 µg/mL)	CCOc1ccc(-c2nc3ncccc3o2)cc1
43.7 (≈ 12.5 µg/mL)	O=[N+]([O-])c1ccc2nc(CSc3ccccc3)oc2c1
105 (≈ 25 µg/mL)	CCc1ccc(-c2nc3cc(C)ccc3o2)cc1
52.2 (≈ 12.5 µg/mL)	COc1ccc(Cc2nc3ccccc3o2)cc1
88.5 (≈ 25 µg/mL)	COC(=O)c1ccc2[nH]c(COc3ccccc3)nc2c1
83.6 (≈ 18.6 µg/mL)	c1ccc(CCc2nc3ccccc3[nH]2)cc1
20.9 (≈ 6.25 µg/mL)	O=[N+]([O-])c1ccc(Cc2nc3cc([N+](=O)[O-])ccc3o2)cc1
97.9 (≈ 25 µg/mL)	Cc1ccc2oc(CSc3ccccc3)nc2c1
97.1 (≈ 25 µg/mL)	CCc1ccc(-c2nc3cc(Cl)ccc3o2)cc1
164 (≈ 50 µg/mL)	O=[N+]([O-])c1cc2oc(COc3ccccc3)nc2cc1Cl
91.2 (≈ 25 µg/mL)	O=[N+]([O-])c1ccc(-c2nc3cc(Cl)ccc3o2)cc1
164 (≈ 50 µg/mL)	O=[N+]([O-])c1ccc2nc(COc3ccc(Cl)cc3)oc2c1
49.2 (≈ 12.5 µg/mL)	Cc1ccc(-c2nc3cc([N+](=O)[O-])ccc3o2)cc1
42.7 (≈ 12.5 µg/mL)	Clc1ccc(OCc2nc3cc(Cl)ccc3[nH]2)cc1
94.6 (≈ 25 µg/mL)	Clc1ccc(-c2nc3cc(Cl)ccc3o2)cc1
91.8 (≈ 25 µg/mL)	Cc1ccc2[nH]c(COc3ccc(Cl)cc3)nc2c1
94 (≈ 25 µg/mL)	CC(=O)Nc1ccc(-c2nc3cc(C)ccc3o2)cc1
45.3 (≈ 11.8 µg/mL)	Clc1ccc2oc(COc3ccccc3)nc2c1
181 (≈ 49.9 µg/mL)	Clc1ccc(OCc2nc3ccccc3s2)cc1
97.9 (≈ 24.9 µg/mL)	Cc1ccc2[nH]c(CSc3ccccc3)nc2c1

MIC [µM]	Compound
105 (≈ 25 µg/mL)	CCc1ccc(-c2nc3cc(N)ccc3o2)cc1
45.5 (≈ 12.5 µg/mL)	O=[N+]([O-])c1ccc2oc(-c3ccc(Cl)cc3)nc2c1
51.3 (≈ 12.5 µg/mL)	Clc1ccc2oc(Cc3ccccc3)nc2c1
18.8 (≈ 6.28 µg/mL)	O=[N+]([O-])c1ccc2oc(Cc3ccc(Br)cc3)nc2c1
46.7 (≈ 12.5 µg/mL)	O=[N+]([O-])c1ccc2oc(CCc3ccccc3)nc2c1
94.4 (≈ 24.4 µg/mL)	CNc1ccc(-c2nc3cc(Cl)ccc3o2)cc1
111 (≈ 25 µg/mL)	c1ccc(OCc2nc3ccccc3o2)cc1
105 (≈ 25 µg/mL)	CNc1ccc(-c2nc3cc(C)ccc3o2)cc1
99.1 (≈ 25 µg/mL)	Cc1ccc2oc(-c3ccc(N(C)C)cc3)nc2c1
98.9 (≈ 25 µg/mL)	CN(C)c1ccc(-c2nc3cc(N)ccc3o2)cc1
22 (≈ 6.26 µg/mL)	COc1ccc(Cc2nc3cc([N+](=O)[O-])ccc3o2)cc1
52 (≈ 12.5 µg/mL)	c1ccc(SCc2nc3ccccc3[nH]2)cc1
55.8 (≈ 12.5 µg/mL)	c1ccc(CCc2nc3ncccc3o2)cc1
39.3 (≈ 12.5 µg/mL)	O=[N+]([O-])c1ccc2oc(-c3ccc(Br)cc3)nc2c1
51.3 (≈ 12.5 µg/mL)	Clc1ccc(Cc2nc3ccccc3o2)cc1
51.9 (≈ 12.5 µg/mL)	O=[N+]([O-])c1ccc(-c2nc3ncccc3o2)cc1
183 (≈ 50 µg/mL)	Cc1ccc2oc(COc3ccc(Cl)cc3)nc2c1
43.9 (≈ 12.5 µg/mL)	O=[N+]([O-])c1ccc2[nH]c(CSc3ccccc3)nc2c1
97.9 (≈ 25 µg/mL)	Cc1ccc2nc(CSc3ccccc3)oc2c1
88.3 (≈ 25 µg/mL)	COC(=O)c1ccc2oc(COc3ccccc3)nc2c1
49 (≈ 12.5 µg/mL)	Nc1ccc(-c2nc3cc([N+](=O)[O-])ccc3o2)cc1
43.8 (≈ 12.5 µg/mL)	O=[N+]([O-])c1ccc2oc(CSc3ccccc3)nc2c1
55.8 (≈ 12.5 µg/mL)	CCc1ccc(-c2nc3ncccc3o2)cc1
52.2 (≈ 12.5 µg/mL)	O=[N+]([O-])c1ccc2oc(-c3ccccc3)nc2c1

MIC [µM]	Compound
96.4 (≈ 25 µg/mL)	Clc1ccc(OCc2nc3ccccc3o2)cc1
59.8 (≈ 12.5 µg/mL)	c1ccc(Cc2nc3ccccc3o2)cc1
105 (≈ 25 µg/mL)	Cc1ccc2[nH]c(COc3ccccc3)nc2c1
105 (≈ 25.1 µg/mL)	COc1ccc(-c2nc3cc(C)ccc3o2)cc1
49.2 (≈ 12.5 µg/mL)	O=[N+]([O-])c1ccc(Cc2nc3ccccc3o2)cc1
21.7 (≈ 6.26 µg/mL)	O=[N+]([O-])c1ccc2oc(Cc3ccc(Cl)cc3)nc2c1
97.1 (≈ 25 µg/mL)	c1ccc(SCc2nc3ccccc3s2)cc1 [2-(PHENYLTHIOMETHYL)BENZO[D]THIAZOLE]
52.1 (≈ 14 µg/mL)	O=[N+]([O-])c1ccc2[nH]c(COc3ccccc3)nc2c1
96.6 (≈ 25 µg/mL)	Clc1ccc(OCc2nc3ccccc3[nH]2)cc1
110 (≈ 25 µg/mL)	Cc1ccc2oc(-c3ccc(F)cc3)nc2c1
83.9 (≈ 25 µg/mL)	COC(=O)c1ccc2[nH]c(CSc3ccccc3)nc2c1
112 (≈ 25 µg/mL)	c1ccc(NCc2nc3ccccc3[nH]2)cc1
110 (≈ 25 µg/mL)	Nc1ccc2oc(-c3ccc(F)cc3)nc2c1
99.8 (≈ 25.1 µg/mL)	CC(C)(C)c1ccc(-c2nc3ccccc3o2)cc1
119 (≈ 25 µg/mL)	Nc1ccc(-c2nc3ccccc3o2)cc1
97.3 (≈ 25 µg/mL)	Clc1ccc2[nH]c(CCc3ccccc3)nc2c1
48 (≈ 12.5 µg/mL)	Clc1ccc(OCc2nc3ncccc3o2)cc1
59.3 (≈ 12.5 µg/mL)	Nc1ccc(-c2nc3ncccc3o2)cc1
55 (≈ 12.4 µg/mL)	c1ccc(OCc2nc3ncccc3o2)cc1
105 (≈ 25 µg/mL)	Cc1ccc2[nH]c(CNc3ccccc3)nc2c1
92.5 (≈ 25 µg/mL)	O=[N+]([O-])c1ccc2oc(COc3ccccc3)nc2c1
183 (≈ 50 µg/mL)	Cc1ccc2nc(COc3ccc(Cl)cc3)oc2c1
91 (≈ 25 µg/mL)	Clc1ccc2[nH]c(CSc3ccccc3)nc2c1
41.8 (≈ 12.5 µg/mL)	COC(=O)c1ccc2oc(CSc3ccccc3)nc2c1

MIC [µM]	Compound
24.6 (≈ 6.26 µg/mL)	O=[N+]([O-])c1ccc2oc(Cc3ccccc3)nc2c1
55.3 (≈ 12.5 µg/mL)	COc1ccc(-c2nc3ncccc3o2)cc1
77.6 (≈ 22.4 µg/mL)	Nc1ccc2oc(-c3ccc(Br)cc3)nc2c1
38.9 (≈ 12.6 µg/mL)	Clc1ccc2oc(Cc3ccc(Br)cc3)nc2c1
105 (≈ 25.1 µg/mL)	Cc1ccc2oc(COc3ccccc3)nc2c1
87.3 (≈ 25 µg/mL)	CC(=O)Nc1ccc(-c2nc3cc(Cl)ccc3o2)cc1
42.2 (≈ 12.5 µg/mL)	CC(C)(C)c1ccc(-c2nc3cc([N+](=O)[O-])ccc3o2)cc1
43.4 (≈ 12.5 µg/mL)	O=[N+]([O-])c1ccc(Cc2nc3cc(Cl)ccc3o2)cc1
51.8 (≈ 12.5 µg/mL)	c1ccc(SCc2nc3ccccc3o2)cc1
48.3 (≈ 12.5 µg/mL)	Clc1ccc2[nH]c(COc3ccccc3)nc2c1
185 (≈ 50.1 µg/mL)	O=[N+]([O-])c1ccc2nc(COc3ccccc3)oc2c1
79.1 (≈ 25 µg/mL)	COC(=O)c1ccc2[nH]c(COc3ccc(Cl)cc3)nc2c1
84.9 (≈ 25 µg/mL)	Clc1ccc(OCc2nc3cc(Cl)ccc3o2)cc1
207 (≈ 50 µg/mL)	c1ccc(OCc2nc3ccccc3s2)cc1 [2-(PHENOXYMETHYL)BENZOTHIAZOLE]
39 (≈ 12.5 µg/mL)	O=[N+]([O-])c1cc2oc(CSc3ccccc3)nc2cc1Cl
111 (≈ 25 µg/mL)	c1ccc(OCc2nc3ccccc3[nH]2)cc1
82 (≈ 25 µg/mL)	O=[N+]([O-])c1ccc2oc(COc3ccc(Cl)cc3)nc2c1
104 (≈ 25 µg/mL)	Cc1ccc2nc(COc3ccccc3)oc2c1
148 (≈ 50 µg/mL)	O=[N+]([O-])c1cc2oc(COc3ccc(Cl)cc3)nc2cc1Cl
59.6 (≈ 12.5 µg/mL)	Cc1ccc(-c2nc3ncccc3o2)cc1
128 (≈ 25 µg/mL)	c1ccc(-c2nc3ccccc3o2)cc1 [2-PHENYLBENZO[D]OXAZOLE]
78.7 (≈ 25 µg/mL)	COC(=O)c1ccc2oc(COc3ccc(Cl)cc3)nc2c1
112 (≈ 25.1 µg/mL)	Cc1ccc(-c2nc3cc(C)ccc3o2)cc1
